Experimental data: patent US10604476B2, “Fluorinated amide derivatives and their uses as therapeutic agents” (Trillium Therapeutics Inc., priority 2015, dated 2020)

Test system: mEC-HC slice from KA-treated rats
Assay: Spontaneously bursting hippocampal slice in vitro model
Type: cell-based, rat
Details: 100 μM, FIG. 2
Text: An in vitro screen uses the medial entorhinal cortex-hippocampal (mEC-HC) slice obtained from kainic acid (KA)-treated animals to identify compounds that may be effective in pharmacoresistant epilepsy. Systemic KA treatment in rats is an accepted model of temporal lobe epilepsy (TLE), where an initial insult results in status epilepticus and is followed by a sustained latent period that subsequently gives way to the development of spontaneous seizures. […] Moreover, the mEC-HC slices obtained from KA-treated rats are hyperexcitable in normal artificial cerebrospinal fluid (ACSF) solution as early as one week following KA-induced SE. Thus, this test screens investigational compounds for any potential efficacy against pharmacoresistant TLE. […]
Kainic acid administration/low dose: Animals were treated with Kainic Acid (Tocris, 0222) following a modified protocol described previously (Hellier et al 1998). Seizure activity is scored throughout KA administration using the Racine scale (Racine, 1972). […] Once stage 4-5 seizures are observed, injections cease and the number and stage of seizures observed are recorded on seizure score sheets. The animals are observed and seizures recorded for a minimum of 3.5 h. […]

Structure (SMILES): C[C@@H](Oc1cc(Cl)cc(C(F)(F)F)c1)C(N)=O [I(D), (2R)-2-[3-chloro-5-(trifluoromethyl)-phenoxy]propanamide]
- network hyperexcitability (spontaneous burst activity and duration): effectively suppressed
